# Key:
# [1] = biological target: Estrogen receptor beta (Homo sapiens) (UniProt Q92731); assay: Relative binding affinity to ERbeta LBD by competitive binding assay
# [2] = Selectivity ratio of relative binding affinity for ERbeta receptor LBD to relative binding affinity for ERalpha receptor LBD
# [3] = biological target: T1, Estrogen receptor (Homo sapiens) (UniProt P03372); assay: Relative binding affinity to ERalpha LBD by competitive binding assay
# T1 sequence (whole entry): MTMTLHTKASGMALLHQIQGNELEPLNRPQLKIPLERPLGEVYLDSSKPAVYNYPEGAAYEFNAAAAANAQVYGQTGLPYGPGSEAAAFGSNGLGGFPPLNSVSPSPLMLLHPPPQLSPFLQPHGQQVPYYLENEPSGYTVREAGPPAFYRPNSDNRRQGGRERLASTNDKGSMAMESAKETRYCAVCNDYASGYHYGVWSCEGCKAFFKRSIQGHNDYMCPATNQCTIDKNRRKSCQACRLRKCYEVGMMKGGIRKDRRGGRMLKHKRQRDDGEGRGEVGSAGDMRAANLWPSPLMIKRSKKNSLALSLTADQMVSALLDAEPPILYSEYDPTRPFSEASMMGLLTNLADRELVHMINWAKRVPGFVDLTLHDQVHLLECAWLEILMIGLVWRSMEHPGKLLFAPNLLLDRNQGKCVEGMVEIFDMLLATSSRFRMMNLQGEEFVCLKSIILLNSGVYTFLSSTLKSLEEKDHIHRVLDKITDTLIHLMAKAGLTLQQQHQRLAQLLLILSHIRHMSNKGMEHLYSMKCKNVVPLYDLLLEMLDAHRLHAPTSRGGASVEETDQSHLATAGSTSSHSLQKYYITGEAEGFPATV
# Sequence of Estrogen receptor beta (Homo sapiens) (Q92731 whole entry, the tested form may be a part): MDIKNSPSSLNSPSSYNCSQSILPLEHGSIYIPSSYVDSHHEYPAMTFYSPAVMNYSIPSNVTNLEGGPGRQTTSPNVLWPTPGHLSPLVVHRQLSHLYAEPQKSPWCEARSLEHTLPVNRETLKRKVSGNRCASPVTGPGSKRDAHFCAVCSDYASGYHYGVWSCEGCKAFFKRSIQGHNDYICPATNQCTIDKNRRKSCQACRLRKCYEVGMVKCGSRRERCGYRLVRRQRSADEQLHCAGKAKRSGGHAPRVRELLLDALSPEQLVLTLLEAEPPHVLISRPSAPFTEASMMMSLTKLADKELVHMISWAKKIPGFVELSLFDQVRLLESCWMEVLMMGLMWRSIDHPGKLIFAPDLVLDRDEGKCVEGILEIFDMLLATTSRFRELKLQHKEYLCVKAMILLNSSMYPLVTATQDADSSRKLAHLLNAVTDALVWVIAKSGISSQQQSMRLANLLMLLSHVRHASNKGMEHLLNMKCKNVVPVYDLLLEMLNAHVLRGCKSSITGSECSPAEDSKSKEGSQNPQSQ
RBA [1] [%],Selectivity ratio [2],RBA [3] [%],SMILES
33.7,0.86,–,C[C@]12C[C@H](c3ccc(OCCN=[N+]=[N-])cc3)[C@@H]3c4ccc(O)cc4CC[C@H]3[C@@H]1CC[C@@H]2O
1.9,0.43,4.5,CC1(C)CC(NCc2cn(CCOc3ccc([C@H]4C[C@]5(C)[C@@H](O)CC[C@H]5[C@@H]5CCc6cc(O)ccc6[C@H]54)cc3)nn2)CC(C)(C)N1[O]

# From ChEMBL document CHEMBL1949624, “Synthesis of a spin-labeled anti-estrogen as a dynamic motion probe for the estrogen receptor ligand binding domain” (Bioorg Med Chem Lett, 2012)
